# Read-outs that look alike come from different tables or passages of the source.
# Experiments:
# [1] = system: aminopeptidases; conditions: cited from earlier work
# [2] = system: ciliary motility; conditions: cited from earlier work
# [3] = aqueous solution at physiologic pH; cited from earlier work
# [4] = 0.5 mg/mL in phosphate buffer, pH 7.4; vortex mixing 1 min; cited from earlier work
# [5] = anesthetized rats, cited from earlier work
compound,measurement,setting,value
CC(C)CC(N)B(O)O (stereo not drawn) [boro-leucine],effectiveness in enzyme inhibition relative to bestatin,[1],more than 100 times
same,effectiveness in enzyme inhibition relative to puromycin,[1],more than 1000 times
"CC(C(=O)[O-])c1ccc(NC(=O)c2ccccc2O)cc1.[Na+] (stereo not drawn) [Sodium Salt of Carrier B, Sodium 2-(4-(N-salicyloyl)aminophenyl)propionate]",melting point,,236 to 238 °C
2-alkyl-4-hydroxyquinolines [pyo compound],concentration producing ciliostasis / inhibiting ciliary motility,[2],50 µg/mL
CCN(CC)/[N+]([O-])=N/O.CCNCC [diethylamine/NO],NO release time,[3],< 3 min
"NCCN(CCN)/[N+]([O-])=N/O [diethylenetriamine/NO (DETANO), diethylenetriamine/NO]",NO release time,[3],approximately 20 hours
human growth hormone (hGH): peptide hormone human growth hormone,drug precipitated as insoluble aggregates,[4],67%
same,nasal bioavailability,[5]; with N-acetyl-L-cysteine (ACS),12.2%
same,nasal bioavailability,[5]; without N-acetyl-L-cysteine,7.5%
